# In US9765039B2, “Biaryl derivatives as bromodomain inhibitors” (Zenith Epigenetics Ltd., priority 2012, dated 2017):
# What was measured:
# [1] = target: T1, Brd4 bromodomain 1 (Homo sapiens, UniProt O60885); experiment: Inhibition of tetra-acetylated histone H4 binding to BET bromodomains (TR-FRET); set-up: key: Active: Compounds with an IC50 value less than 30 μM were deemed to be active.; Not Active: Compounds with an IC50 value less than 30 μM were deemed to be active; conditions: first bromodomain of Brd4, tetra-acetylated histone H4 peptide
# T1 construct: made in house; host or cells: E. coli BL21(DE3)
# How it was run: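 TR-FRET with N-terminally His-tagged bromodomains (200 nM, E. coli-expressed, Ni affinity and SEC-purified) and biotinylated tetra-acetylated histone H4 peptide (25–50 nM), detected with Eu-cryptate streptavidin and XL665 anti-His antibody. Buffer 30 mM HEPES pH 7.4, 320 mM KF, 0.08% BSA, 0.2% DMSO; 2 h RT. IC50 from decrease in 665/620 nm ratio.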
# [2] = test system: Human AML MV-4-11 cells; experiment: Inhibition of cell proliferation in cancer cell lines (CellTiter Aqueous One); assay type: cell-based; set-up: key: Active: Compounds with an IC50 value less than 30 μM were deemed to be active.; Not Active: Compounds with an IC50 value less than 30 μM were deemed to be active; conditions: 72 hours
# How it was run: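 Exponentially growing MV-4-11 cells were treated immediately with two-fold compound dilutions from 30 µM to 0.2 µM in triplicate for 72 h at 37 °C. Viability was read by MTS (CellTiter Aqueous One) absorbance at 490 nm after 3-4 h; % proliferation vs DMSO gave IC50.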
# [3] = test system: hIL-6 mRNA; experiment: Inhibition of hIL-6 mRNA transcription in LPS-stimulated U937 macrophages; assay type: cell-based, human; set-up: key: Active: Compounds with an IC50 value less than 30 μM are deemed to be active; conditions: U937 differentiated into macrophages, 1 h pretreatment, lipopolysaccharide 3 h
# How it was run: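 U937 cells differentiated 3 days with 60 ng/mL PMA, pretreated 1 h with compound, then stimulated with […] E. coli LPS for 3 h at 37° C. hIL-6 mRNA quantified by one-step real-time RT-PCR, Ct normalised to internal control and expressed as fold induction relative to control.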
# [4] = test system: hApoA-1 mRNA; experiment: Up-regulation of hApoA-1 mRNA transcription in Huh7 cells; assay type: cell-based, human; set-up: key: Active: Compounds with an EC170 value less than 30 μM are deemed to be active.; Not Active: Compounds with an EC170 value less than 30 μM are deemed to be active; conditions: 48 hrs treatment, ApoA-I mRNA
# Description: In this example, ApoA-I mRNA in tissue culture cells was quantitated to measure the transcriptional up-regulation of ApoA-I when treated with a compound of the present disclosure.
# Huh7 cells ([…] per well) were plated in a 96-well plate using 100 μL DMEM per well, (Gibco DMEM supplemented with penicillin/streptomycin and 10% FBS), 24 h before the addition of the compound of interest. After 48 hrs treatment, the spent media was removed from the Huh-7 cells and placed on ice (for immediate use) or at −80° C. (for future use) with the “LDH cytotoxicity assay Kit II” from Abcam. The cells remaining in the plate were rinsed with 100 μL PBS.
# Then 85 μL of cell lysis solution was added to each well and incubated for 5-10 minutes at room temperature, to allow for complete cell lysis and detachment. mRNA was then prepared using the “mRNA Catcher PLUS plate” from Life Technologies, according to the protocol supplied. After the last wash, as much wash buffer as possible was aspirated without allowing the wells to dry. Elution Buffer (E3, 80 μL) was then added to each well. mRNA was then eluted by incubating the mRNA Catcher PLUS plate with Elution Buffer for 5 minutes at 68° C., and then 1 minute at 4° C. Catcher plates with mRNA eluted were kept on ice for use or stored at −80° C.
# The eluted mRNA isolated was then used in a one-step real-time PCR reaction, using components of the Ultra Sense Kit together with Life Technologies primer-probe mixes. Real-time PCR data was analyzed, using the Ct values, to determine the fold induction of each unknown sample, relative to the control (that is, relative to the control for each independent DMSO concentration).
# Compounds with an EC170 value less than 30 μM are deemed to be active.
# [5] = test system: c-myc; experiment: Inhibition of c-myc expression in cancer cell lines (mRNA, real-time PCR); assay type: cell-based; set-up: key: Active: Compounds with an IC50 value less than 30 μM were deemed to be active; conditions: Human AML MV4-11 cells, 3 hours
# How it was run: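 MV4-11 cells (2.5×10^4) exposed to compound or 0.1% DMSO for 3 h at 37° C, then lysed for mRNA isolation. c-myc and cyclophilin cDNAs co-amplified by duplex RT real-time PCR. IC50 from dose-response curve.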
SMILES,melting point,FRET activity (IC50 < 30 μM) [1],cell proliferation activity (IC50 < 30 μM) [2],IL-6 activity (IC50 < 30 μM) [3],c-myc activity (IC50 < 30 μM) [5],ApoA-1 Activity (EC170 < 30 μM) [4]
"COc1cc(OC)c2c(=O)[nH]c(-c3cccc(-c4ccc([S+](C)[O-])cc4)n3)nc2c1 (stereo not drawn) [Example 49, 5,7-Dimethoxy-2-(6-(4-(methylsulfinyl)phenyl)pyridin-2-yl)quinazolin-4(3H)-one]",281 to 282 °C,Active,Active,Active,Not Active,Active
"COc1cc(OC)c2c(=O)[nH]c(-c3ccc(OCCNC(C)C)c(-c4ccc(C(=O)N(C)C)cc4)n3)nc2c1 [Example 26, 4-(6-(5,7-Dimethoxy-4-oxo-3,4-dihydroquinazolin-2-yl)-3-(2-(isopropylamino)ethoxy)pyridin-2-yl)-N,N-dimethylbenzamide]",214 to 215 °C,Active,Active,Active,Active,Active
"COc1cc(OC)c2c(=O)[nH]c(-c3cccc(-c4ccc(C(=O)N(C)C)cc4)n3)nc2c1 [Example 20, 4-(6-(5,7-Dimethoxy-4-oxo-3,4-dihydroquinazolin-2-yl)pyridin-2-yl)-N,N-dimethylbenzamide]",217 to 219 °C,Active,Not Active,Active,Active,Active
"COc1cc(OC)c2c(=O)[nH]c(-c3ccc(OCCO)c(-c4ccc(S(C)(=O)=O)cc4)n3)nc2c1 [Example 24, 2-(5-(2-Hydroxyethoxy)-6-(4-(methylsulfonyl)phenyl)pyridin-2-yl)-5,7-dimethoxyquinazolin-4(3H)-one]",> 300 °C,Active,Not Active,Active,Not Active,Active
"COc1cc(OC)c2c(=O)[nH]c(-c3ccc(OCCN(C(=O)OC(C)(C)C)C(C)C)c(-c4ccc([S+](C)[O-])cc4)n3)nc2c1 (stereo not drawn) [Example 53, tert-Butyl (2-((6-(5,7-dimethoxy-4-oxo-3,4-dihydroquinazolin-2-yl)-2-(4-(methylsulfinyl)phenyl)pyridin-3-yl)oxy)ethyl)(isopropyl)carbamate]",114 to 116 °C,Active,Not Active,Not Active,Not Active,Active
"COc1cc(OC)c2c(=O)[nH]c(-c3ccc(OC)c(-c4ccc(C(=O)N(C)C)cc4Cl)c3)nc2c1 [Example 59, 2-Chloro-5′-(5,7-dimethoxy-4-oxo-3,4-dihydroquinazolin-2-yl)-2′-methoxy-N,N-dimethyl-[1,1′-biphenyl]-4-carboxamide]",> 300 °C,Active,Not Active,Active,Active,Active
COc1ccc2c(=O)[nH]c(-c3ccc(OCCNC(C)C)c(-c4ccc(S(C)(=O)=O)cc4)n3)nc2c1 [Example 67],204 to 205 °C,Active,Active,Not Active,Active,Active
"COc1cc(OC)c2c(=O)[nH]c(-c3ccc(OCCO)c(-c4ccc([S+](C)[O-])cc4)n3)nc2c1 (stereo not drawn) [Example 38, 2-(5-(2-Hydroxyethoxy)-6-(4-(methylsulfinyl)phenyl)pyridin-2-yl)-5,7-dimethoxyquinazolin-4(3H)-one]",281 to 282 °C,Active,Active,Active,Active,Active

# Now from value to molecule, other results behind:
melting point,FRET activity (IC50 < 30 μM) [1],cell proliferation activity (IC50 < 30 μM) [2],IL-6 activity (IC50 < 30 μM) [3],c-myc activity (IC50 < 30 μM) [5],SMILES,ApoA-1 Activity (EC170 < 30 μM) [4]
202 to 203 °C,Active,Active,Active,Active,"COc1cc(OC)c2c(=O)[nH]c(-c3ccc(OCCNC(C)C)c(-c4ccc(S(C)(=O)=O)cc4C)n3)nc2c1 [Example 45, 2-(5-(2-(Isopropylamino)ethoxy)-6-(2-methyl-4-(methylsulfonyl)phenyl)pyridin-2-yl)-5,7-dimethoxyquinazolin-4(3H)-one]",Active
156 to 157 °C,Active,Active,Active,Active,"COc1cc(OC)c2c(=O)[nH]c(-c3ccc(OCCNC(C)C)c(-c4cccc([S+](C)[O-])c4)n3)nc2c1 (stereo not drawn) [Example 40, 2-(5-(2-(Isopropylamino)ethoxy)-6-(3-(methylsulfinyl)phenyl)pyridin-2-yl)-5,7-dimethoxyquinazolin-4(3H)-one]",Active
272 to 273 °C,Active,Not Active,Active,Active,"COc1cc(OC)c2c(=O)[nH]c(-c3ccc(OCCO)c(-c4cccc([S+](C)[O-])c4)n3)nc2c1 (stereo not drawn) [Example 37, 2-(5-(2-Hydroxyethoxy)-6-(3-(methylsulfinyl)phenyl)pyridin-2-yl)-5,7-dimethoxyquinazolin-4(3H)-one]",Active
211 to 213 °C,Active,Active,Active,Active,"COc1cc(OC)c2c(=O)[nH]c(-c3ccc(OCCN4CCCC4)c(-c4ccc(S(C)(=O)=O)cc4)n3)nc2c1.Cl [Example 29, 5,7-Dimethoxy-2-(6-(4-(methylsulfonyl)phenyl)-5-(2-(pyrrolidin-1-yl)ethoxy)pyridin-2-yl)quinazolin-4(3H)-one hydrochloride]",Active
